Measured values reported in ChEMBL document CHEMBL1201862, “PubChem BioAssay data set” (2004).
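1) Cells in 96-well plates. 2) Compound, 48 h, 5 concentrations. 3) Linear interpolation between surrounding doses. 4) Unreached endpoint = highest concentration. At the GI50, growth is halved.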 Activity calls are given as the source filed them. No stated cut-off is given here; in the data, active = GI50 up to about 1.1 µM and inactive = higher. Positions of bridges follow the written chain, without caps; N, C: chain ends. Non-standard residues stand in square brackets, D forms with d. Residues, ends and D or L forms follow the SMILES beside them. ξ: configuration not given here. *: point of attachment. X28 = O=C(/C=C/C=C/C=C/C=C/C=C/C(=O)*)NC1=C(O)CCC1=O; Pro(4R-Me) = C[C@H]1CN[C@H](C(=O)O)C1; NMeA = CN[C@@H](C)C(=O)O; ξF = NC(Cc1ccccc1)C(=O)O; ξA = CC(N)C(=O)O

Experiments:
Assay in all cases: NCI anticancer screen, dose series, 48 h
NCI-H460 = tested on: NCI-H460
K562 = tested on: K562
SW-620 = tested on: SW-620
SK-OV-3 = tested on: SK-OV-3
MCF7 = tested on: MCF7
OVCAR-4 = tested on: OVCAR-4
SK-MEL-2 = tested on: SK-MEL-2
HT-29 = tested on: HT-29
786-0 = tested on: 786-0
MOLT-4 = tested on: MOLT-4
MDA-N = tested on: MDA-N
HCT-15 = tested on: HCT-15
SR = tested on: SR
CCRF-CEM = tested on: CCRF-CEM
Hs-578T = tested on: Hs-578T
MDA-MB-231 = tested on: MDA-MB-231
NCI-H226 = tested on: NCI-H226
LOX IMVI = tested on: LOX IMVI
SF-539 = tested on: SF-539
HOP-62 = tested on: HOP-62

SMILES | GI50 (NCI-H460) | GI50 (K562) | GI50 (SW-620) | GI50 (SK-OV-3) | GI50 (MCF7) | GI50 (OVCAR-4) | GI50 (SK-MEL-2) | GI50 (HT-29) | GI50 (786-0) | GI50 (MOLT-4) | GI50 (MDA-N) | GI50 (HCT-15) | GI50 (SR) | GI50 (CCRF-CEM) | GI50 (Hs-578T) | GI50 (MDA-MB-231) | GI50 (NCI-H226) | GI50 (LOX IMVI) | GI50 (SF-539) | GI50 (HOP-62)
COc1ccc(NC2=NCCO2)c2c1CCCC2 | 34.5 µM (inactive) | 28.3 µM (inactive) | 47.4 µM (inactive) | 18.4 µM (inactive) | 27.4 µM (inactive) | 58.7 µM (inactive) | 18.8 µM (inactive) | 46.8 µM (inactive) | 93.5 µM (inactive) | 10.5 µM (inactive) | 35.6 µM (inactive) | 31.6 µM | 29.2 µM (inactive) | 25.5 µM (inactive) | 25.9 µM (inactive) | 43.8 µM (inactive) | 21.9 µM (inactive) | 29.1 µM (inactive) | 33.2 µM (inactive) | 
Cc1cc(N(CCC#N)CCC#N)ccc1C(/N=N/c1ccccc1)=N\NC(=O)c1ccccc1 | 29.3 µM (inactive) | 9.84 µM (inactive) |  | 53.5 µM (inactive) | 18.6 µM (inactive) | 29.2 µM (inactive) | 77.1 µM (inactive) | 16.8 µM (inactive) | 25.5 µM (inactive) | 19.5 µM (inactive) | 7.96 µM (inactive) | 18.3 µM | 6.81 µM (inactive) | 18.6 µM (inactive) | 31.5 µM (inactive) | 57 µM (inactive) | 43.4 µM (inactive) |  | 17.4 µM (inactive) | 55.8 µM (inactive)
Cc1ccc2nc(-c3nccn3C)cc(C(=O)NC(C)CN(C)C)c2c1 (configuration not stated) | 24.9 µM (inactive) |  | > 100 µM (inactive) |  | 63 µM (inactive) |  | > 100 µM (inactive) | 72.6 µM (inactive) | > 100 µM (inactive) | > 10 µM (inactive) | > 100 µM (inactive) | 55.1 µM | 0.711 µM (active) |  | > 100 µM (inactive) | > 100 µM (inactive) | 98.6 µM (inactive) | 91.2 µM (inactive) | 26.1 µM (inactive) | 34.9 µM (inactive)
O=c1oc2c/c(=C\c3ccccn3)c(=O)c3cccc1c3-2 | > 100 µM (inactive) | > 100 µM (inactive) | > 100 µM (inactive) | > 100 µM (inactive) | > 100 µM (inactive) | > 100 µM (inactive) |  | > 100 µM (inactive) | 14.6 µM (inactive) | 49.3 µM (inactive) | > 100 µM (inactive) | > 100 µM | 54.8 µM (inactive) | 33.8 µM (inactive) | > 100 µM (inactive) | 31.8 µM (inactive) | 28.3 µM (inactive) | 29 µM (inactive) | 19.7 µM (inactive) | 15.4 µM (inactive)
Oc1cccc(-c2cn3cc(C(F)(F)F)ccc3n2)c1 | 26.1 µM (inactive) | 30.5 µM (inactive) | 67.8 µM (inactive) | 33.4 µM (inactive) | 15.4 µM (inactive) | 22.1 µM (inactive) | 39.5 µM (inactive) | 24.1 µM (inactive) | 54.6 µM (inactive) | 17.1 µM (inactive) | 35.7 µM (inactive) | 29.2 µM | 31.6 µM (inactive) | 24.1 µM (inactive) | 74.6 µM (inactive) | 43.7 µM (inactive) | 46.9 µM (inactive) | 32.6 µM (inactive) |  | 48.8 µM (inactive)
CC1NC(=O)[C@H](C)N(C)C(=O)[C@@H]2CCCN2C(=O)[C@@H](NC(=O)C(Cc2ccccc2)NC(=O)/C=C/C=C/C=C/C=C/C=C/C(=O)NC2=C(O)CCC2=O)COC(=O)[C@@H]2C[C@@H](C)CN2C1=O (stereo partly drawn) (X28-[ξF]SP[NMeA][ξA][Pro(4R-Me)]; ester 2-C) | > 100 µM (inactive) | > 100 µM (inactive) | > 100 µM (inactive) | > 100 µM (inactive) | > 100 µM (inactive) | > 100 µM (inactive) | > 100 µM (inactive) | > 100 µM (inactive) | > 100 µM (inactive) |  | > 100 µM (inactive) | > 100 µM | > 100 µM (inactive) | > 100 µM (inactive) | > 100 µM (inactive) | > 100 µM (inactive) |  | > 100 µM (inactive) | > 100 µM (inactive) | > 100 µM (inactive)
COC(=O)CCc1ccc2c(c1)C(=O)CC2 | > 100 µM (inactive) | > 100 µM (inactive) | > 100 µM (inactive) | > 100 µM (inactive) | > 100 µM (inactive) | > 100 µM (inactive) | > 100 µM (inactive) | > 100 µM (inactive) | > 100 µM (inactive) | > 100 µM (inactive) | > 100 µM (inactive) | > 100 µM | > 100 µM (inactive) | > 100 µM (inactive) | > 100 µM (inactive) | > 100 µM (inactive) |  | > 100 µM (inactive) | > 100 µM (inactive) | > 100 µM (inactive)
Cc1ccc(-c2cc[n+]3c(n2)oc2ccccc23)cc1 | 72.8 µM (inactive) | 4.84 µM (inactive) | 8.93 µM (inactive) | 33.6 µM (inactive) | 30.8 µM (inactive) | 16 µM (inactive) | 22.8 µM (inactive) |  | 14.7 µM (inactive) | 10.8 µM (inactive) | 31.6 µM (inactive) | > 100 µM | 11 µM (inactive) | 10.3 µM (inactive) | 27.8 µM (inactive) | 75.2 µM (inactive) |  | 35.7 µM (inactive) | 25.1 µM (inactive) | 
COc1cc(OC)c(-c2oc3ccccc3c(=O)c2O)c(OC)c1 | 3.21 µM (inactive) | 2.7 µM (inactive) | 3.62 µM (inactive) | 5.94 µM (inactive) | 6.25 µM (inactive) | 0.237 µM (active) |  | 3.08 µM (inactive) | 13.4 µM (inactive) | 3.52 µM (inactive) | 0.867 µM (active) | 2.99 µM | 3.69 µM (inactive) | 6.75 µM (inactive) | 2.39 µM (inactive) | > 20.7 µM (inactive) | > 100 µM (inactive) | 5.98 µM (inactive) | 8.73 µM (inactive) | 
COc1ccc(-c2[nH]c(-c3ccc(OC)cc3)c(-c3ccccn3)c2-c2ccccn2)cc1 | 31.8 µM (inactive) | 25.5 µM (inactive) | 36 µM (inactive) | > 100 µM (inactive) | 42.7 µM (inactive) |  |  | 21.6 µM (inactive) | > 100 µM (inactive) | 34.7 µM (inactive) | > 100 µM (inactive) | 26.1 µM | 34.6 µM (inactive) | 35.2 µM (inactive) | > 100 µM (inactive) | 89.3 µM (inactive) | 85.7 µM (inactive) | 24 µM (inactive) | 63.1 µM (inactive) | 
CC1(C)CC[C@]2(C(=O)O)CC[C@]3(C)C(=CC[C@@H]4[C@@]5(C)CC[C@H](OC6OC(CO)C(O)C(O)C6O)C(C)(C)[C@@H]5CC[C@]43C)[C@@H]2C1 (some centres not stated) | 3.61 µM (inactive) | 1.42 µM (inactive) | 1.82 µM (inactive) | 1.75 µM (inactive) | 2.37 µM (inactive) | 1.61 µM (inactive) | 1.71 µM (inactive) | 1.62 µM (inactive) | 1.77 µM (inactive) | 1.85 µM (inactive) | 1.86 µM (inactive) | 2.75 µM | 2.34 µM (inactive) | 2.22 µM (inactive) | 2.26 µM (inactive) | 1.66 µM (inactive) | 1.77 µM (inactive) | 1.66 µM (inactive) |  | 1.72 µM (inactive)
COC(=O)c1ccccc1C1CN=NC12Cc1ccc(C)c(C)c1C2=O (configuration not stated) | 52.4 µM (inactive) | 28.9 µM (inactive) | > 100 µM (inactive) | > 100 µM (inactive) | 35.6 µM (inactive) | 31.6 µM (inactive) | > 100 µM (inactive) | 27.2 µM (inactive) | > 100 µM (inactive) | 26.1 µM (inactive) | 77.4 µM (inactive) | 33.9 µM |  | 34.3 µM (inactive) | > 100 µM (inactive) | 40.2 µM (inactive) | > 100 µM (inactive) | 14.6 µM (inactive) | > 100 µM (inactive) | > 100 µM (inactive)
C=CCOc1ccc(C(=N/NC(=O)c2ccccc2)/N=N/c2ccc([N+](=O)[O-])cc2)cc1OC | 64.1 µM (inactive) |  | > 100 µM (inactive) |  | > 100 µM (inactive) | > 100 µM (inactive) | > 100 µM (inactive) | > 100 µM (inactive) | > 100 µM (inactive) | 92.5 µM (inactive) | > 100 µM (inactive) | > 100 µM | > 100 µM (inactive) | > 100 µM (inactive) | > 100 µM (inactive) | > 100 µM (inactive) | > 100 µM (inactive) | 82.6 µM (inactive) | > 100 µM (inactive) | > 100 µM (inactive)
CCC1(CC)C(=O)N(C(=O)c2ccccc2)N(C(=O)c2ccc(Cl)cc2)C1=O | 36.6 µM (inactive) | 32.9 µM (inactive) | 36.2 µM (inactive) | > 75 µM (inactive) | > 75 µM (inactive) | > 75 µM (inactive) | > 75 µM (inactive) | 58.6 µM (inactive) | > 75 µM (inactive) | 17 µM (inactive) | > 75 µM (inactive) | 72.3 µM | 16.5 µM (inactive) | 12.7 µM (inactive) | > 75 µM (inactive) | > 75 µM (inactive) | > 75 µM (inactive) | 3.35 µM (inactive) |  | > 75 µM (inactive)
CC(=O)OCC1OC(Nc2ccc3nc(C)n(-c4cccc(C)c4)c(=O)c3c2)C(OC(C)=O)C(OC(C)=O)C1OC(C)=O (configuration not stated) | > 62.5 µM (inactive) | > 62.5 µM (inactive) | > 62.5 µM (inactive) |  | > 62.5 µM (inactive) | > 62.5 µM (inactive) | > 62.5 µM (inactive) | > 62.5 µM (inactive) | > 62.5 µM (inactive) | > 62.5 µM (inactive) | > 62.5 µM (inactive) | > 62.5 µM | > 62.5 µM (inactive) |  | > 62.5 µM (inactive) | > 62.5 µM (inactive) | > 62.5 µM (inactive) | > 62.5 µM (inactive) |  | > 62.5 µM (inactive)
